From article PMC7698306, “Exploring the Role of a Novel Peptide from Allomyrina dichotoma Larvae in Ameliorating Lipid Metabolism in Obesity” (International Journal of Molecular Sciences, 2020)
Values joined by “and” are separate entries in the source; they are usually repeats but may differ in a detail not shown here. Equal values may be shown once. No end group written: not given here.

How the values were obtained:
3T3-L1 cells = assay: Lipid accumulation in differentiated 3T3-L1 cells by Oil Red O staining; type: cell-based; conditions: synthesized peptides, untreated cells as control
Experimental: The 3T3-L1 cells were obtained from the Korean Cell Line Bank (Seoul, Korea). They were cultured and maintained in Dulbecco’s modified Eagle medium (DMEM) at 37 °C in a humidified atmosphere of 5% CO2. Additionally, 2-day post-confluent preadipocytes (designated day 0) were cultured in a 2-day differentiation medium composed of DMEM, 0.5 mM IBMX, 1 μM dexamethasone, and 5 μg/mL insulin to induce differentiation. The cells were then cultured in a DMEM containing 5 μg/mL insulin for another 2 days. The medium was replaced every 2 days until the cells had accumulated intracellular lipid droplets. Cells were seeded in 6-well plates, and adipocyte differentiation was induced for 8 days. On day 8, the cells were fixed with 10% buffered formalin and stained with Oil Red O solution for 60 min at room temperature. Images of lipid droplets in the 3T3-L1 adipocytes were captured using a Leica DMi1 microscope (Leica, Germany).

HFD-fed mice [1] = assay: Body weight, energy intake, organ and adipose tissue weights, DXA body fat in high-fat diet (HFD)-fed mice; type: in vivo, C57BL/6 mice
Excerpt: (§1) Four-week-old male C57BL/6 mice were purchased from the Nara Bio Animal Center (NARA Biotech, Seoul, Korea) All experiments were approved by the Institutional Animal Care and Use Committee of Konkuk University (14 July 2019). All possible efforts were made to minimize the suffering and the animal count utilized in this study (KU19102). The mice were randomly divided into the following two groups after 1 week of acclimatization: n = 8 in the control group, fed a normal diet (Control, fat content of 10% kcal), and n = 30, fed a high-fat diet (HFD, fat content of 60% kcal). Mice were registered daily for food intake, and their body weights were assessed twice a week. After 5 weeks, mice with a body weight 20% higher than that of the control group were picked and divided randomly into three groups (n = 8/group): HFD + EIA10, 100 mg/kg/d; and HFD + orlistat, 60 mg/kg /d for 5 weeks. As a positive control, Orlistat was used. After 12 weeks, the mice were subjected to fasting overnight and sacrificed (Figure 2A). Blood samples were harvested for further analysis. Sections of epididymal adipose and liver tissues were fixed in 10% formaldehyde for histological analyses and frozen in liquid nitrogen.
Dual-energy X-ray absorptiometry (DXA) measurements were used to compare the body fat. DXA measurements were performed after 4 weeks of administration using a total-body scanner (InAlyzer dual X-ray absorptiometry, Medikors, Gyeonggi, Korea). Data were obtained once with low energy and once with high energy.

HFD-fed mice [2] = assay: Serum biochemical parameters in HFD-fed mice; type: in vivo, C57BL/6 mice; conditions: EIA10 100 mg/kg/d or orlistat 60 mg/kg/d oral for 5 weeks, mean ± SEM, n = 8
Excerpt: as §1
(§2) Through heart puncture, blood samples were collected and serum was isolated through centrifugation (3000 rpm for 20 min) and processed before further study at −80 °C. An automated analyzer (Abaxis VETSVAN VS2 Chemistry Analyzer, Union City, CA, USA) assessed serum levels of blood urea nitrogen, alanine aminotransferase (ALT), alkaline phosphatase, aspartate aminotransferase (AST), total protein, serum albumin, and electrolytes. Using a fast blood lipid analyzer (OSANG Healthcare Lipid Pro, Anyang, Korea), total cholesterol (TC), low-density lipoprotein cholesterol (LDL), high-density lipoprotein cholesterol (HDL), and TG were calculated. Adiponectin was analyzed by Western blotting, and leptin was quantified using a leptin enzyme-linked immunosorbent assay (ELISA) kit (MERCK, DHB, Germany).

HFD-fed mice [3] = assay: Histological analysis of liver and epididymal adipose tissue (H&E, Oil Red O, IHC) of HFD-fed mice; type: in vivo, C57BL/6 mice
Excerpt: as §1
Liver and epididymal adipose tissues were dissected and embedded in paraffin for histological examination. Tissue blocks were cut into 4-μm thick sections that were stained with hematoxylin and eosin. Frozen liver sections were cut into 8-μm thick sections that were stained with Oil Red O. Adipocyte sizes were assessed using a microscope under 200× magnification to measure tissue size.

[4] = test system: adiponectin, leptin, SREBP-1c, PPARγ, C/EBP-α, FAS, ACC, FABP4; assay: mRNA (real-time PCR) and protein (Western blot, ELISA) levels of adipogenic/lipogenic factors in HFD-fed mice; type: in vivo, C57BL/6 mice
Excerpt: as §1, §2
Total cellular RNA was isolated from the epididymal adipose tissue of each group of mice using TRIzol. The first strand of complementary DNA (cDNA) was synthesized using Superscript II reverse transcriptase (Invitrogen). The conditions for RT-PCR were similar to those previously described. Quantitative real-time PCR was carried out using a Thermal Cycler Dice TP850 (Takarabio Inc., Shiga, Japan) according to the manufacturer’s protocol.
Frozen epididymal adipose tissues from mice were homogenized in liquid nitrogen. Tissue lyses were lysed in a radioimmunoprecipitation lysis buffer containing 1% protein inhibitor cocktail. They were transferred to a nitrocellulose blotting membrane and blocked with 5% skim milk, incubated overnight with primary antibodies purchased from Cell Signaling Technology, and then incubated with secondary antibodies for 2 h. Equal protein loading was ascertained using Ponceau S staining of the blotted membranes. With the help of an improved chemiluminescence detection reagent, the antibody-specific proteins were visualized and quantified using ImageJ tools.

[5] = male C57BL/6 mice on HFD, EIA10 100 mg/kg/d or orlistat 60 mg/kg/d oral for 5 weeks, mean ± SEM, n = 8

## EIAQDFKTDL [EIA10]
3T3-L1 cells
  Lipid Accumulation (% of Control): 30.22 % of Control
HFD-fed mice [1]; DXA, male C57BL/6 mice on HFD, EIA10 100 mg/kg/d or orlistat 60 mg/kg/d oral, mean ± SEM, n = 8
  Total fat weight: 12.71 ± 0.78 g
HFD-fed mice [1]; HFD-fed mice, EIA10 100 mg/kg/d or orlistat 60 mg/kg/d oral
  food intake between different drug groups (appetite): No significant difference
HFD-fed mice [1]; [5]
  Epididymal adipose tissue weight: 2.06 ± 0.34 g
  Final body weight: 37.38 ± 2.55 g
  Initial body weight: 23.07 ± 0.33 g
  Interscapular adipose tissue weight: 0.22 ± 0.06 g
  Liver weight: 1.22 ± 0.25 g
  Subcutaneous adipose tissue weight: 3.36 ± 0.58 g
HFD-fed mice [1]; over 10 weeks, male C57BL/6 mice on HFD, EIA10 100 mg/kg/d or orlistat 60 mg/kg/d oral for 5 weeks, mean ± SEM, n = 8
  Total energy intake: 1026.01 kcal and 1026.01 ± 2.60 kcal
HFD-fed mice [2]
  Glucose: 137 ± 11.47 mg/dL
HFD-fed mice [2]; serum
  ALT (alanine aminotransferase): 58.75 ± 13.16 U/L
  AST (aspartate aminotransferase): 99.20 ± 20.00 U/L
  HDL (high-density lipoprotein cholesterol): 74.49 ± 2.57 mg/dL
  LDL/VLDL: 32.97 ± 3.42 mg/dL
  TC (total cholesterol): 107.46 ± 5.15 mg/dL
  TG (triglyceride): 140.25 ± 5.23 mg/dL
HFD-fed mice [3]; EIA10 100 mg/kg/d oral 5 weeks, vs HFD group, Figure 2C,E
  lipid droplets in the liver (Oil Red O staining of frozen sections): significantly reduced number of lipid droplets
HFD-fed mice [3]; EIA10 100 mg/kg/d oral 5 weeks, vs HFD group, Figure 2D
  size of the adipose cells (epididymal fat, H&E): lower than that of the HFD group
HFD-fed mice [3]; Figure 5C
  FAS in liver tissue by immunohistochemistry (IHC): inhibited
[4]; ELISA, HFD-fed mice, Figure 4B
  plasma leptin concentration: reducing
[4]; HFD-fed mice treated with EIA10 vs HFD group, Figure 4C,D
  mRNA and protein levels of SREBP-1c in the adipose tissue: lower
[4]; Western blot, HFD-fed mice, Figure 4A
  protein levels of adiponectin in mouse epididymal adipose tissue: improved
[4]; epididymal adipose tissue, HFD group mice, Figure 4C,D
  mRNA and protein levels of PPARγ: decreased
[4]; epididymal adipose tissue, Western blot, Figure 4D
  protein levels of PPARγ, C/EBP-α, SREBP-1c, and FABP4: significantly decreased
[4]; epididymal adipose tissue, Western blot, Figure 5A,B
  FAS and ACC gene expression: inhibitory effect
[4]; epididymal adipose tissue, real-time PCR, Figure 4C
  expression of PPARγ, C/EBP-α, FAS, and SREBP-1c: downregulated
